Structures are written as SMILES.

In the experiment the test system is PAF induced mortality. Kind of experiment: Prevention of mortality induced by platelet aggregating factor (PAF). The format is in vivo, mice (CF1). The following applies: Mus musculus, Platelet; oral, PAF 0.10 mg/kg i.v.; read-out: oral ID50 (Inhibiting Dose), PAF induced mortality. How it is done:
(k) Prevention of Mortality Induced by Platelet Aggregating Factor (PAF)
Male CF1 mice weighing 20-30 gms (Carworth Farms Co.) are fed ad libitum.
Racemic 2-[[[2-(acetyloxy)-3-(octadecyloxy)propoxy]hydroxyphosphinyl]oxy]-N,N,N-trimethylethanaminium hydroxide inner salt hemihydrate (PAF) is concentrated in ethanol at a concentration of 1 mg/ml.At the time of experimentation, PAF is diluted in 0.1% BSA (bovine serum albumin) and administered intravenously at a dose of 0.10 mg/kg one hour after 10 mice are dosed with either vehicle (BSA) or drug. Mortality in mice treated with PAF occurs within 30 minutes after i.v. administration.

`CC(C)c1ccc2nc3ccc(C(=O)NCCCCCCn4ccnc4)cn3c(=O)c2c1` [Example 31, 2-(1-methylethyl)-N-[6-(1H-imidazol-1-yl)hexyl]-11-oxo-11H-pyrido[2,1-b]quinazoline-8-carboxamide]: the ED50 is 17 mg/kg.

The values are drawn from US4551460A, “Pyrido[2,1-b]quinazoline derivatives useful as agents for treatment of allergic conditions and vascular disorders involving thrombosis” (priority 1983, dated 1985).
